The test can be described thus: Compound was tested in vitro for binding affinity for 5-hydroxytryptamine 1C receptor.

SMILES strings stand for the structures.

In turn, `NC[C@@H]1O[C@H](c2ccccc2)Cc2c1ccc(Br)c2O` returned a Ki of 200 nM.

`Cc1ccc2c(c1O)C[C@@H](C1CCCCC1)O[C@H]2CN` gave a Ki of 58 nM.

(Values after BindingDB's records for doi:10.1021/jm00114a002 (Abbott Laboratories, 1991).)
